According to article PMC11561622, “Evaluating Antimalarial Proteasome Inhibitors for Efficacy in Babesia Blood Stage Cultures” (ACS Omega, 2024):

Columns and labels:
B. divergens = B. divergens growth in bovine erythrocyte cultures (flow cytometry parasitemia); type: cell-based, Babesia divergens; details: for EC50: bovine erythrocyte cultures, 48 h, dose-response
Procedure: Blood stage cultures of B. divergens (strain 2210A G2) were maintained in erythrocytes from defibrinated bovine blood (BioTrading Benelux B.V.). Parasites were multiplied in in vitro erythrocyte cultures containing RPMI 1640 medium (Lonza, cat. no. BE12-115F) supplemented with 50 μg/mL gentamicin (Lonza), 0.25 μg/mL amphotericin B (Sigma-Aldrich), and 20% (v/v) heat-inactivated fetal calf serum (Lonza, inactivation at 56 °C for 30 min before use). Cells were cultured at 37 °C in a 5% CO2 environment. B. microti (Franca) (ATTC PRA-99) was maintained by continuous intraperitoneal passages in BALB/c female mice (Charles River Laboratories). All laboratory animals were treated in accordance with the Animal Protection Law of the Czech Republic No. 246/1992 Sb., ethics approval no. 25/2018. The study was approved by the Institute of Parasitology, Biology Centre of the Czech Academy of Sciences and the Central Committee for the Animal Welfare, Czech Republic (protocol no. 1/2015).
To evaluate the effect of inhibitors on B. divergens replication, cultures (5% hematocrit) containing 2% parasitemia were cultivated in media. Single concentration screens were first performed using 600 nM of compound and then dose–response assays (5400 to 2.34 nM) were subsequently performed for compounds of interest. Assays were performed twice in triplicate wells in a 96-well tissue culture plate format (TPP, Switzerland) and media containing inhibitors were replaced at 12 h intervals for a total of 48 h. DMSO diluted in medium (0.1%) served as a vehicle control. The parasitemia of intraerythrocytic B. divergens was determined using flow cytometry following the staining of nucleic acids as described previously.[31] Briefly, infected red blood cells were fixed in a solution of 4% paraformaldehyde and 0.025% glutaraldehyde in PBS for 30 min at room temperature (RT). […] Parasitemia was analyzed using a FACS CantoII flow cytometer and Diva software provided by BD Biosciences. The EC50 of compounds in the dose–response inhibition was determined in GraphPad Prism 10 using nonlinear regression.

[1] = tested on: endogenous polyubiquitinated proteins in B. divergens; assay: Western blot of polyubiquitinated proteins in treated B. divergens cultures; type: cell-based, Babesia divergens; details: 200 nM, 24 h, anti-Ubiquitin K48 western blot, vs 0.1% DMSO
Procedure: To assess the on-target effect of proteasome inhibition, protein lysates of B. divergens isolated from bovine erythrocyte cultures were evaluated for the accumulation of polyubiquitinated proteins. The B. divergens cultures underwent two 12 h treatments (totaling 24 h) with 200 nM of the inhibitor in culture medium. Parasites were released from RBCs and protein lysates were prepared as described above. The resulting samples were then centrifuged at 15,000g for 15 min at 4 °C and protein concentrations of the resulting supernatant were determined using Bradford assay.[29] Samples were prepared for SDS-PAGE in reducing Laemmli buffer supplemented with β-mercaptoethanol. Ten micrograms of protein was applied per lane and proteins were separated on gradient (4–15%) Criterion TGX Stain-Free Precast gels (BioRad) in Tris-Glycine-SDS running buffer (25 mM Tris, 192 mM glycine, and 0.1% (w/vol) SDS, pH 8.3) and visualized using TGX stain-free chemistry (BioRad). […] After washing (3 × 10 min) in PBS-T, signals were detected using Clarity Max Western ECL substrate (BioRad), visualized using a ChemiDoc MP imager, analyzed, and adjusted using the ImageLab freeware (BioRad).

CCCCCC(=O)N[C@H](C(=O)N[C@@H](CCS(C)(=O)=O)C(=O)N[C@@H](CC(C)C)C(=O)[C@@]1(C)CO1)C(C)C [carmaphycin B]
Selectivity index (B. divergens over HepG2 cells) (B. divergens; HepG2 EC50 / B. divergens EC50): 0.21
EC50 (B. divergens): 59.5 ± 12.8 nM
EC50 (B. divergens; listed as CPB): 59.5 ± 12.8 nM
accumulation of endogenous polyubiquitinated proteins [1]: marked accumulation
